This note sets out measurements from patent publication US7632505B2, “Treatment of macrophage mediated disease” (Purdue Research Foundation, priority 2001, dated 2009).

Assay [1] relates to activated macrophages. Description: Biodistribution analysis (gamma counting of harvested tissues) in arthritic rats. In kind it is in vivo, rat. The note with it: FF 2000 nmoles/kg days 1,2,3,9,11,14 or MTX 0.15 mg days 1,8,15.
Experimental: Arthritis was induced in 150-200 g female Lewis rats (Charles River Laboratories, Inc., Wilmington, Mass.), n=4/dose group. Briefly, 0.5 mg of heat-killed Mycoplasma butericum, suspended in mineral oil (5 mg/ml), was injected on day 0 into the left hind foot of rats following anesthesia with ketamine and xylazine. Disease was allowed to progress for 21 days, and animals were weighed on a daily basis to ensure the status of their health. […] All rats were maintained on a folate-deficient diet (DYETS, Inc., Bethlehem, Pa.) for 3 weeks prior to administration of folate-FITC in order to lower serum folate levels to physiologically relevant concentrations. Control rats were also maintained on a folate-deficient diet but not induced to develop arthritis.
Seventeen days following induction of the arthritis and three days prior to administration of the imaging agent (EC20), rats destined for macrophage depletion received a single intraperitoneal injection of clodronate liposomes containing 20 mg clodronate. […]
For biodistribution analysis, rats were euthanized by intraperitoneal injection of nebutal or pentobarbitol sodium. Liver, spleen, heart, lungs, intestine, and kidneys were then harvested and radiation in each tissue was determined by counting in a gamma counter (Packard BioScience Co., Meridian, Conn.).
Assay [2] relates to adjuvant-induced arthritis in rats. The assay is described as follows: Adjuvant-induced arthritis, paw swelling (immunotherapy mediated protection). Format: in vivo, rat. As to conditions: for inhibition of adjuvant-induced arthritis, left and right paw: Example 14, folate-FITC 3000 nmoles/kg per day, days 1,2,3, osmotic pump, MTX 0.15 mg ip days 1,8,15.
Experimental: Arthritis was induced in 150-200 g female Lewis rats (Charles River Laboratories, Inc., Wilmington, Mass.), n=4/dose group. Briefly, 0.5 mg of heat-killed Mycoplasma butericum, suspended in mineral oil (5 mg/ml), was injected on day 0 into the left hind foot of rats following anesthesia with ketamine and xylazine. Disease was allowed to progress for 21 days, and animals were weighed on a daily basis to ensure the status of their health. […] Control rats were also maintained on a folate-deficient diet but not induced to develop arthritis.
The efficacy of a folate-FITC conjugate (folate-fluorescein isothiocyanate conjugate) against adjuvant-induced arthritis in rats was investigated. Each rat used in the experiment was immunized at the base of the tail with FITC-KLH (150 μg) to induce antibodies against FITC on days −38 and −10 before administration of Mycoplasma butericum (adjuvant) to induce arthritis. The immunization of FITC-KLH was done in combination with an adjuvant (i.e., such as TITERMAX® GOLD (150 μg), Alum (150 μg), or GPI-100 (150 μg) which are all adjuvants to induce antibodies against FITC as opposed to the adjuvant used to induce arthritis). The immunized animals were then injected on day 0 in the left foot pad with 0.5 mg of heat-killed Mycoplasma butyricum (adjuvant) to initiate development of arthritis. Then on days 1, 2, 3, 9, 11, and 14, post-adjuvant (Mycoplasma butyricum) injection, the rats were injected intraperitoneally with either saline (control rats) or 2000 nmoles/kg of folate-FITC (FF). Calipers were used to measure left and right foot dimensions daily.
Methotrexate (MTX) was administered at a dose of 0.15 mg by intraperitoneal injection one time per day on days 1, 8, and 15 after adjuvant administration. MTX was used in place of folate-FITC for animals treated with MTX.
Other animals were treated with 0.75 mg of MTX (FF+mid) or 1.5 mg of MTX (FF+high).
Assay [3] has as its system Mac-1+ peripheral blood cells. An excerpt:
(§1) Using an antibody specific for granulocytes, we also examined whether tissue infiltrating neutrophils might take up folate conjugates.

Assay [4] concerns tissue infiltrating neutrophils.
Excerpt: as §1

In assay [5] the test system is liver macrophages. The assay is described as follows: Flow cytometry of folate-FITC binding to disaggregated liver cells (ED2 macrophage marker). In kind it is cell-based, rat. From the text: The protocols described in Examples 2, 4, 6 and 7 were used. To further confirm that the elevated uptake of EC20 in livers of arthritic rats is due to a macrophage population, livers were resected from collagenase-perfused rats and their disaggregated cells examined for folate conjugate uptake, using folate-FITC as a fluorescent marker for FR expression.
For orientation: Flow cytometry measures light scatter and fluorescence of single cells or particles in a stream.

The mark [6] stands for this setting: Example 8, 2000 nmoles/kg ip days 1,2,3,9,11,14, FITC-immunized rats.

As for `CN(Cc1cnc2nc(N)nc(N)c2n1)c1ccc(C(=O)N[C@@H](CCC(=O)O)C(=O)O)cc1` [MTX, Methotrexate, reference compound], the “effect of treatment on EC20 organ uptake” value in assay [1] is given as “prevent EC20 uptake in all organs examined except the kidney”. Besides, the “inhibition of adjuvant-induced arthritis, left and right paw” value in assay [2] is listed as “inhibits adjuvant-induced arthritis as well as MTX”.
As to `Nc1nc2ncc(CNc3ccc(C(=O)NC(CCC(=O)NCCNC(=S)Nc4ccc(C(=O)O)c(-c5c6ccc(=O)cc-6oc6cc(O)ccc56)c4)C(=O)O)cc3)nc2c(=O)[nH]1` (stereo not shown) [folate-FITC, folate-fluorescein isothiocyanate], the “binding to Mac-1+ peripheral blood cells” value in assay [3] is on record as “no binding affinity”. In addition, the “binding to liver neutrophils” value in assay [4] is recorded as “no binding capacity”. In assay [5] (1 mM folic acid), the “binding in presence of excess free folic acid” value is reported as “suppressed”. Also, the “liver macrophages that bound folate-FITC” value in assay [5] (arthritic rats, 1 μM folate-FITC) is reported as 70%. Further, the “FITC intensity of arthritic macrophages” value in assay [5] (vs macrophages from healthy livers) is on record as “higher than that of macrophages from healthy livers”. The “effect of treatment on EC20 organ uptake” value in assay [1] was “prevent EC20 uptake in all organs examined except the kidney”. For the same compound, in assay [2] (setting [6]), the “activated macrophages invading feet after about 10 days (foot dimensions)” value is “eliminated or reduced” and the “early (neutrophil) phase of paw swelling of adjuvant-injected feet” value is “no impact on this phase of paw swelling”. Moreover, in assay [2], the “inhibition of adjuvant-induced arthritis, left and right paw” value was “inhibits adjuvant-induced arthritis as well as MTX”. Besides, the “prolonged treatment vs 3 initial doses” value in assay [2] (Example 15, 3000 nmoles/kg, days 1,2,3,9,11,14 vs days 1,2,3) was “prolonged treatment with FF is more effective than 3 initial doses”. Further, the “inhibition of adjuvant-induced arthritis, right (uninjected) paw volume” value in assay [2] (Example 15, FF 3000, 600 and 120 nmoles/kg) is given as “inhibits adjuvant-induced arthritis in the right paw”.
